Reference: US8022235B2, “Compositions of phospholipid ether boronic acids and esters and methods for their synthesis and use” (Cellectar, Inc., priority 2007, dated 2011)

Key:
Adrenal RL-251 = assay: Imaging and tissue distribution, tumor model; assay type: in vivo, SCID Mouse; settings: days 1 through 14
Mammary SCC and ACC = assay: Imaging and tissue distribution, tumor model; therapeutic responses at imaging doses; assay type: in vivo, Apc^Min/+mouse; settings: single intravenous injection, ^125I-labeled, imaging dose 15-20 μCi/20 g mouse
Text: (§1) During the course of mouse tumor uptake and retention studies with “imaging” doses (15-20 μCi/20 g mouse) of ^125I-labeled NM404, several apparent therapeutic responses have been observed (unpublished results). […] Some of these animals also lost all hair above larger mammary tumors at around 8 days after injection. Moreover, these mice also get intestinal tumors and usually suffer from intestinal bleeding resulting in severe anemia, which renders their feet white. […] Another compelling example of tumor regression is illustrated in FIG. 13. Two litter mates each received SCC1 and SCC6 xenografts in their left and right flanks, respectively. One mouse received a single injection of ^125I-NM404 (20 μCi). […] These coincidental findings were reconfirmed in two separate age-matched groups each involving more than 6 mice.

animal tumor models = assay: Imaging and biodistribution across animal tumor models (general statements)
Text: See, for example, U.S. patent application Ser. Nos. 10/906,687, 11/177,740, 11/316,620 and 11/382,645. Due to deficiencies in metabolic phospholipase enzymes in the membranes of malignant tumor cells, the prevailing hypothesis for this specificity is that phospholipid ether analogs become trapped exclusively in tumor cell membranes because of their inability to become metabolized and eliminated by the cancerous cell. Thus, the differential clearance rates of phospholipid ethers from normal cells versus neoplastic tumor cells are responsible for this specificity.
The reason for the retention of PLE and analogs in cancer cells remains unknown. Without being held to any particular theory, however, the prevailing hypothesis, is that radioiodinated PLE and APC analogs become trapped in tumor cell membranes because of their inability to be metabolized and eliminated. On the other hand, such lipid molecules are metabolized and cleared by normal tissues, including the liver.
These PLE analogs are specifically designed to incorporate aromatic radioiodine in order to render the molecule stable towards in vivo deiodination.

[1] = tested on: A549 human non-small cell lung cancer xenografts; assay: Single-dose 125I-NM404 treatment, tumor volume, A549 xenografts; assay type: in vivo, SCID mice
Text: FIG. 3 illustrates antitumor effect of single-dose treatment with ^125I-125-NM404 at doses of 50 (∘), 150 (□), 250 (⋄) and 500 (∘) μCi in SCID mice bearing A549 human non-small cell lung cancer xenografts. In FIG. 3, control animals show rapidly growing tumors over the 10-week assessment period. […] Tumor volumes are stable and some tumors appear “collapsed” (the tumor surface has collapsed). Additionally, hair above the tumors fell off confirming substantial accumulation of radioactivity in these tumors.
FIG. 4 is an image showing one of the tumor-bearing animals treated with 250 μCi of ^125I-NM404 at 4 weeks following injection. The hair above the tumor has fallen off, apparently due to the significant accumulation of radioactivity in the tumor. […] The measurement method for determining outer tumor dimensions may have underestimated tumor volume response following dosing with ^125I-NM404;
(§2) The inventors have previously shown that ^125I-labeled PLE analogs such as NM404 are effective in targeting tumor therapies to tumor cells following single injection and fractionated dosing. For assessment of efficacy of ^125I-NM404 treatment, assessments of tumor volume were made until 10 weeks post-injection or until no animal in the control group was alive, whatever came first. Summarizing the results, control animals show rapidly growing tumors over the 10-week assessment period. See, FIGS. 2 and 3. […] Tumor volumes are stable and the same tumors appear “collapsed” (the tumor surface has caved in). Additionally, the hair above the tumors fell off confirming substantial accumulation of radioactivity in these tumors, FIG. 4. […] (See also, for example, U.S. patent application Ser. No. 11/671,403 hereby incorporated in its entirety for all purposes.)

SCC1 and 6 = assay: Imaging and tissue distribution, tumor model; tumor regression; assay type: in vivo
Text: as §1

[2] = tested on: PC3 human prostate cancer xenografts; assay: Single-dose 125I-NM404 treatment, tumor volume, PC3 xenografts; assay type: in vivo, SCID mice; settings: single dose 250 μCi and 500 μCi, n=6 per group
Method: Tumor volumes were calculated using formula (width)^2×(length)/2 and expressed as mean±SEM, n=6 for each group. ⋄ Cold NM404, control;
as §2

C[N+](C)(C)CCOP(=O)([O-])OCCCCCCCCCCCCCCCCCCc1ccc([125I])cc1 [^125I-NM404]
tissue distribution, blood, spleen and kidney (Adrenal RL-251): distribution in blood, spleen and kidney reduced
tissue distribution, tumor (Adrenal RL-251): accumulation in the tumor increased
tumor growth (Mammary SCC and ACC): tumor growth remains static
time over which tumors could be imaged (animal tumor models; mammary and prostate tumors in mice): > 60 days
duration of tumor retention (animal tumor models; mice, post-injection): 20 to 60 days
tumor volume vs control ([1]; 50 μCi dose group): did not show any difference when compared with control animals
tumor volume vs control ([1]; 150, 250 and 500 μCi dose groups): substantial and prolonged treatment effect
effect on the tumor (appearance) ([1]; 250 μCi, 4 weeks following injection (FIG. 4)): causes central necrosis
dose dependence of effect on tumor volume ([1]; single dose 50-500 μCi): dose-linear effect
tumor volume vs control ([1]; single dose 50 and 150 μCi (FIG. 3 legend)): did not show any difference when compared to control animals
tumor volume vs control ([1]; single dose 250 and 500 μCi (FIG. 3 legend)): substantial and prolonged treatment effect
tumor regression (SCC1 and 6; by day 41 after injection (FIG. 12)): significantly reduced
health of treated animal (SCC1 and 6; single injection 20 μCi): quite healthy 80 days after injection
tumor regression (SCC1 and 6; single injection 20 μCi, SCC1 and SCC6 flank xenografts, untreated litter mate died 21 days later): regressed significantly
change in tumor volume / primary tumor growth [2]: significant effects in inhibiting the progression of primary tumor growth
